Structures are written as SMILES. Changes are numbered by the printed parent chain. Entries after “also recorded” stand apart in the source; their conditions may differ.

Experiment [1] concerns the target T1, wild-type ABL kinase domain (Homo sapiens, UniProt P00519).
T1 construct: ABL kinase domain (corresponding to residues 229-512); GST (N, cleaved yes); PreScission cleavage site (N, cleaved yes); made in house; host or cells: High5 insect cells (baculovirus)
T1 sequence (P00519 229-512): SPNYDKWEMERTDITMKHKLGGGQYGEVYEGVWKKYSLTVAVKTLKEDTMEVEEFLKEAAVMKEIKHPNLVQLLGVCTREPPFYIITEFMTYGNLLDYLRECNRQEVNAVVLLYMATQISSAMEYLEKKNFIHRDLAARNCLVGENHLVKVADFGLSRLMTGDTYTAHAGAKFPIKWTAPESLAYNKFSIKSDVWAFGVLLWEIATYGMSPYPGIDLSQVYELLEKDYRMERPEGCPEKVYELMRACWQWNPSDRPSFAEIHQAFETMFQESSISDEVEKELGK
In words: Indolinone probe titration (fluorescence), probe of 3.1. Particulars: Table 1; 10 nM enzyme, probe 3 μM to 0. The class given is binding. On the procedure: (§1) Data analysis was performed using the Dynafit software.

The target in experiment [2] is T2, Wild-type ABL 0P (unphosphorylated) kinase domain (Homo sapiens, UniProt P00519).
T2 construct: ABL kinase domain (corresponding to residues 229-512); GST (N, cleaved yes); PreScission cleavage site (N, cleaved yes); made in house; host or cells: High5 insect cells (baculovirus)
T2 sequence (P00519 229-512): T1 sequence (P00519 229-512)
The description is as above. The experiment is classed as binding. Conditions: Table 1; 10 nM enzyme, probe 3 μM to 0. How it is done:
as §1

Experiment [3] addresses T3, T315I ABL mutant kinase domain (Homo sapiens, UniProt P00519, T315I).
T3 construct: ABL kinase domain (corresponding to residues 229-512); GST (N, cleaved yes); PreScission cleavage site (N, cleaved yes); made in house; host or cells: High5 insect cells (baculovirus)
T3 sequence (P00519 229-512 T315I): T1 sequence (P00519 229-512) with T87I
Described as above. Particulars: Table 1; 10 nM enzyme, probe 3 μM to 0. The class given is binding. On the procedure:
as §1

Experiment [4] concerns the target T1, wild-type ABL kinase domain. In words: ATP site-dependent displacement assay, indolinone probe of 3.1. The class given is binding. From the text: (§2) KD values, are the average of three independent experiments.
Experiment [5] has as its target T2, Wild-type ABL 0P (unphosphorylated) kinase domain. The description is as above. The class given is binding.
Text: as §2

For experiment [6], the target named is T3, T315I ABL mutant kinase domain. The description is as above. The experiment is classed as binding.
Text: as §2

For experiment [7], the target named is T1, wild-type ABL kinase domain. In words: ATP site-dependent displacement assay, indolinone probe of 3.2. The experiment is classed as binding.
Text: as §2

Experiment [8] has as its target T2, Wild-type ABL 0P (unphosphorylated) kinase domain. The experiment is described as above. The experiment is classed as binding.
Text: as §2

Experiment [9] has as its target T3, T315I ABL mutant kinase domain. The description is as above. The class given is binding.
Text: as §2

For experiment [10], the target named is T4, wild-type ABL in HCT-116 transfected cells (Homo sapiens, UniProt P00519).
T4 construct: ABL cDNA (corresponding to residues 27-1130); expressed in transfected cells; host or cells: HCT-116
Briefly: Immunoblotting of transfected HCT-116 cells (pY412-ABL). The experiment is classed as cell-based. Conditions: 5 μM, HCT-116 transfected with wild-type construct, FIG. 3. How it is done: (§3) Amplification was performed using the forward oligonucleotide:
(§4) Immunoblotting was performed according to standard methods.

Experiment [11] concerns the target T5, T315I ABL mutant in HCT-116 transfected cells (Homo sapiens, UniProt P00519, T315I).
T5 construct: ABL cDNA (corresponding to residues 27-1130); expressed in transfected cells; host or cells: HCT-116
Described as above. Conditions: 5 μM, HCT-116 transfected with T315I mutant construct, FIG. 3. The class given is cell-based. On the procedure:
as §3
Oligonucleotide used in the mutagenesis reaction was:
as §4

Experiment [12] deals with T6, BCR-ABL in K-562 leukemia cells (Homo sapiens, UniProt P00519).
T6 construct: endogenously expressing BCR-ABL cells; endogenous in cells; host or cells: K-562; the other entry of the earlier key: BCR (P11274, Breakpoint cluster region protein)
In words: Immunoblotting of K-562 leukemia cells, inhibition of BCR-ABL signaling. The experiment is classed as cell-based. Particulars: K-562 cells treated for one hour. (In general: A western blot detects proteins with antibodies after separation by electrophoresis.)

Where [13] appears, read: Table 2, probe 3.1, 3 μM highest inhibitor concentration.
Where [14] appears, read: Tables 2 and 3, probe 3.1, 3 μM highest inhibitor concentration.
[15] abbreviates: Table 5, probe 3.2, 3 μM highest inhibitor concentration, average of three experiments.
Setting [16] is: Tables 5 and 6, probe 3.2, 3 μM highest inhibitor concentration, average of three experiments.

Take `CCN(CC)CCNC(=O)c1c(C)[nH]c(/C=C2\C(=O)Nc3ccc(S(=O)(=O)Cc4ccccc4)cc32)c1C` [2,4-dimethyl-5-[2-oxo-5-phenylmethanesulfonyl-1,2-dihydro-indol-(3Z)-ylidenemethyl]-1H-pyrrole-3-carboxylic acid (2-diethylamino-ethyl)-amide]: the Kd was determined as 40 ± 20 nM in [1], 50 ± 30 nM in experiment [2] and 140 ± 70 nM in [3].
For `Nc1ncnc2c1ncn2[C@@H]1O[C@H](COP(=O)(O)OP(=O)(O)OP(O)(O)=S)[C@@H](O)[C@H]1O` [ATPγS, reference compound], the dissociation constant (Kd) was 9000 ± 1900 nM in [4] (Table 1 validation, probe 3.1 at 0.12 μM, highest conc. ATPγS 250 μM, Imatinib 10 μM, average of three experiments); 9500 ± 3400 nM in [5] (Table 1 validation, probe 3.1 at 0.15 μM, highest conc. ATPγS 250 μM, Imatinib 10 μM, average of three experiments); 2000 ± 210 nM in experiment [6] (Table 1 validation, probe 3.1 at 0.42 μM, highest conc. ATPγS 250 μM, Imatinib 10 μM, average of three experiments); 4800 ± 1000 nM in experiment [7] (Table 4 validation, probe 3.2 at 3.3 μM); 6600 ± 1600 nM in experiment [8] (Table 4 validation, probe 3.2 at 2 μM); 2610 ± 900 nM in [9] (Table 4 validation, probe 3.2 at 0.2 μM).
Turning to `CC(C)(NC(=O)c1cc2c(NC(=O)c3ccc(CN4CCCCC4)cc3)n[nH]c2s1)c1ccccc1` [Compound 1, 3-(4-Piperidin-1-ylmethyl-benzoylamino)-1H-thieno[2,3-c]pyrazole-5-carboxylic acid (1-methyl-1-phenyl-ethyl)-amide], the equilibrium dissociation constant (Kd) worked out at 250 ± 75 nM in [4] (setting [13]); 240 ± 30 nM in experiment [5] (setting [13]); 21 ± 6 nM in experiment [6] (setting [14]); 310 ± 26 nM in [7] (setting [15]); 278 ± 122 nM in [8] (setting [15]); 37 ± 13 nM in [9] (setting [16]). The “inhibitory activity on ABL (pY412-ABL immunoblot)” value in experiment [10] and in [11] was “capable of inhibiting; also recorded: strong inhibitory activity” in each case. Besides, the “effect on Src” value in [12] is on record as “no effect on Src”. The “inhibition of ABL auto-phosphorylation of Y412” value in experiment [12] (FIG. 2) is given as “inhibit phosphorylation of Y412”. The “inhibition of phosphorylation of downstream mediators Stat-5 and Crkl” value in [12] (FIG. 2) is recorded as “inhibit”.
With `CC(C)(NC(=O)c1cc2c(NC(=O)c3ccc(CN4CCCCC4)cc3)n[nH]c2s1)c1ccccc1F` [Compound 2, 3-(4-Piperidin-1-ylmethyl-benzoylamino)-1H-thieno[2,3-c]pyrazole-5-carboxylic acid [1-(2-fluoro-phenyl)-1-methyl-ethyl]-amide], the dissociation constant Kd in experiment [4] (setting [13]) stood at 177 ± 32 nM; in [5] (setting [13]), 107 ± 21 nM; in [6] (setting [14]) it was 15 ± 4 nM; in experiment [7] (setting [15]), 177 ± 32 nM; in experiment [8] (setting [15]), 107 ± 21 nM; in experiment [9] (setting [16]), 15 ± 4 nM.
For `CC(C)(NC(=O)c1cc2c(NC(=O)c3ccc(CN4CCOCC4)cc3)n[nH]c2s1)c1ccccc1F` [Compound 3, 3-(4-Morpholin-4-ylmethyl-benzoylamino)-1H-thieno[2,3-c]pyrazole-5-carboxylic acid [1-(2-fluoro-phenyl)-1-methyl-ethyl]-amide], the Kd in experiment [4] (setting [13]) came to 370 ± 160 nM; in [5] (setting [13]) it was 330 ± 150 nM; in [6] (setting [14]), 47 ± 15 nM; in [7] (setting [15]), 553 ± 136 nM; in experiment [8] (setting [15]) it was 350 ± 50 nM; in [9] (setting [16]), 70 ± 22 nM.
Turning to `CN1CCC(Oc2ccc(C(=O)Nc3n[nH]c4sc(C(=O)NC(C)(C)c5ccccc5)cc34)cc2)CC1` [Compound 4, 3-[4-(1-Methyl-piperidin-4-yloxy)-benzoylamino]-1H-thieno[2,3-c]pyrazole-5-carboxylic acid (1-methyl-1-phenyl-ethyl)-amide], the Kd in experiment [6] (setting [14]) came to 6 ± 3 nM; in experiment [9] (setting [16]) it was 2.7 ± 1 nM.
As for `CN1CCN(c2ccc(C(=O)Nc3n[nH]c4sc(C(=O)NC(C)(C)c5ccccc5)cc34)cc2)CC1` [Compound 5, 3-[4-(4-Methyl-piperazin-1-yl)-benzoylamino]-1H-thieno[2,3-c]pyrazole-5-carboxylic acid (1-methyl-1-phenyl-ethyl)-amide], the values for the Kd in experiment [6] (setting [14]) and in experiment [9] (setting [16]) were 4.1 ± 2 nM and 5.3 ± 4 nM, respectively.
On the same counts, the results for `CC(C)(NC(=O)c1cc2c(NC(=O)c3ccc(CN4CCCCC4)cc3)n[nH]c2s1)c1ccc(F)cc1` [Compound 6, 3-(4-Piperidin-1-ylmethyl-benzoylamino)-1H-thieno[2,3-c]pyrazole-5-carboxylic acid [1-(4-fluoro-phenyl)-1-methyl-ethyl]-amide] are 14 ± 5 nM and 17.4 ± 6 nM.
On the same counts, the results for `CC(C)NCc1ccc(C(=O)Nc2n[nH]c3sc(C(=O)NC(C)(C)c4ccccc4F)cc23)cc1` [Compound 7] are 20 ± 2 nM and 16.8 ± 3 nM.
For the compound `CN1CCN(c2ccc(C(=O)Nc3n[nH]c4sc(C(=O)NC(C)(C)c5ccccc5F)cc34)cc2)CC1` [Compound 8, 3-[4-(4-Methyl-piperazin-1-yl)-benzoylamino)-1H-thieno[2,3-c]pyrazole-5-carboxylic acid [1-(2-fluoro-phenyl)-1-methyl-ethyl]-amide], the Kd in experiment [6] (setting [14]) turned out to be 12 ± 6 nM; in experiment [9] (setting [16]), 8.3 ± 1.5 nM.
`CC(C)(NC(=O)c1cc2c(NC(=O)c3ccc(CN4CCCCC4)cc3)n[nH]c2s1)c1ccccc1Cl` [Compound 9, 3-(4-Piperidin-1-ylmethyl-benzoylamino)-1H-thieno[2,3-c]pyrazole-5-carboxylic acid [1-(2-chloro-phenyl)-1-methyl-ethyl]-amide]: the values for the Kd in [6] (setting [14]) and in experiment [9] (setting [16]) were 14 ± 3.5 nM and 18 ± 3.4 nM, respectively.
For `CN1CCN(Cc2ccc(C(=O)Nc3n[nH]c4sc(C(=O)NC(C)(C)c5ccccc5)cc34)cc2)CC1` [Compound 10, 3-[4-(4-Methyl-piperazin-1-ylmethyl)-benzoylamino]-1H-thieno[2,3-c]pyrazole-5-carboxylic acid (1-methyl-1-phenyl-ethyl)-amide], the Kd in experiment [6] (setting [14]) was 8.4 ± 4 nM; in [9] (setting [16]) it was 9.3 ± 2.5 nM.
For `CC(C)NCc1ccc(C(=O)Nc2n[nH]c3sc(C(=O)NC(C)(C)c4ccccc4)cc23)cc1` [Compound 11, 3-[4-(Isopropylamino-methyl)benzoylamino)-1H-thieno[2,3-c]pyrazole-5-carboxylic acid (1-methyl-1-phenyl-ethyl)-amide] the same measures were 12 ± 2.5 nM and 11 ± 2.6 nM.
Turning to `CC(C)(NC(=O)c1cc2c(NC(=O)c3ccc(N4CCOCC4)cc3)n[nH]c2s1)c1ccccc1` [Compound 12, 3-(4-Morpholin-4-yl-benzoylamino)-1H-thieno[2,3-c]pyrazole-5-carboxylic acid (1-methyl-1-phenyl-ethyl)-amide], the figures for the dissociation constant Kd in [6] (setting [14]) and in experiment [9] (setting [16]) were 16 ± 3.7 nM and 11.7 ± 3.8 nM, respectively.
Regarding `CC(C)(NC(=O)c1cc2c(NC(=O)c3ccc(CN4CCCCC4)cc3)n[nH]c2s1)c1cccc(F)c1` [Compound 13, 3-(4-Piperidin-1-ylmethyl-benzoylamino)-1H-thieno[2,3-c]pyrazole-5-carboxylic acid [1-(3-fluoro-phenyl)-1-methyl-ethyl]-amide], the dissociation constant (Kd) in experiment [6] (setting [14]) stood at 10 ± 4.6 nM; in experiment [9] (setting [16]) it was 6.3 ± 3.3 nM.

In general, Kd refers to the equilibrium constant for the complex coming apart. Read a low Kd as a tighter complex.

Values taken from patent publication US7803829B2, “Use of a kinase inhibitor for the treatment of particular resistant tumors” (Nerviano Medical Sciences S.r.l., priority 2006, dated 2010).
